Experimental data as given in US20100305139A1, “METHOD OF TREATING ABNORMAL LIPID METABOLISM” (MITSUBISHI TANABE PHARMA CORPORATION, priority 2005, published 2010).

Tests used:
Wistar rat = assay: Fasting blood sugar level in Wistar rat
[1] = tested on: rats with type 2 diabetes; settings: non-patent reference 7; cited from earlier work
ZF rat = assay: Oral fat loading in ZF rat (abnormal lipid and glucose metabolism); type: in vivo
Description: Effect of Compound 3 on Abnormal Lipid Metabolism and Abnormal Glucose Metabolism after Oral Fat Loading in ZF Rat
The test was performed using male ZF rats. The rats were divided into two groups (10 rats/group). Compound 3 (1 mg/kg) or a 0.5% hydroxypropylmethylcellulose solution, which was a vehicle used to dissolve the compound, was administered by gavage to each of the rats. The administered volume was 2 mL/kg for both. At 15 min after the administration, a fat emulsion (main component was soybean oil, Intralipos; Otsuka Pharmaceutical Factory, Inc.) was orally loaded at the rate of 10 mL/kg. Blood samples were sequentially collected, and plasma TG concentration, free fatty acids concentration, glucose concentration and insulin concentration were measured.

fat-loaded ZF rat = assay: Oral glucose loading in fat-loaded ZF rat; type: in vivo
Description: Effect of Compound 3 on Increase in Plasma Glucose after Oral Glucose Loading in Fat-Loaded ZF Rat
The test was performed using male ZF rats. The number of experimental examples was 10 for each group. […] The administered volume was 2 mL/kg for both. At 15 min after the administration, a fat emulsion (main component was soybean oil, Intralipos; Otsuka Pharmaceutical Factory, Inc.) was orally loaded at the rate of […]. Furthermore, at 6 hr after the administration of fat emulsion, a mixed carbohydrate solution of starch, sucrose and lactose (mixing ratio 6:3:1) was orally administered at 3.5 g/kg. The volume administered of each of the fat emulsion and the carbohydrate solution was 10 mL/kg. Blood samples were sequentially collected, and plasma glucose concentration was measured.

[2] = ZF rat, summary statement, dose not given

In the case of `CC(C)[C@H]1CC[C@H](C(=O)N[C@H](Cc2ccccc2)C(=O)O)CC1` [nateglinide, (−)-N-(trans-4-isopropylcyclohexylcarbonyl)-D-phenylalanine, reference compound], the “plasma glucose concentration (hypoglycemia)” value (Wistar rat; overnight-fasted male Wistar rats, gavage, nateglinide 10, 30, 100 or 300 mg/kg, maximum change from value before drug administration (FIG. 6)) is listed as “induced hypoglycemia”, the plasma insulin concentration (Wistar rat; overnight-fasted male Wistar rats, gavage, nateglinide 10, 30, 100 or 300 mg/kg, maximum change from value before drug administration (FIG. 7)) is listed as “increased” and the “increase in blood lipid by fat loading” value [1] is listed as “suppresses”.
In the case of `Br.Cc1cc(N2CCN([C@@H]3CN[C@H](C(=O)N4CCSC4)C3)CC2)n(-c2ccccc2)n1` [compound 1, 3-{(2S,4S)-4-[4-(3-methyl-1-phenyl-1H-pyrazol-5-yl)piperazin-1-yl]pyrrolidin-2-ylcarbonyl}thiazolidine hydrobromide], the hypoglycemia (Wistar rat; summary statement, unlike insulin secretagogue, dose not given) is reported as “does not induce hypoglycemia”, the “blood glucose increase after the fat loading” value (ZF rat; [2]) is reported as “suppresses” and the “increase in the plasma TG concentration after fat loading” value (ZF rat; obese Zucker fatty rat having insulin resistance, summary statement, dose not given) is reported as “suppresses”. The “blood glucose increase after glucose loading in an oral glucose loading test after fat loading” value (fat-loaded ZF rat; [2]) was “markedly suppresses”.
In the case of `Br.Br.Br.Br.Br.Cc1cc(N2CCN([C@@H]3CN[C@H](C(=O)N4CCSC4)C3)CC2)n(-c2ccccc2)n1.Cc1cc(N2CCN([C@@H]3CN[C@H](C(=O)N4CCSC4)C3)CC2)n(-c2ccccc2)n1` [compound 3, 3-{(2S,4S)-4-[4-(3-methyl-1-phenyl-1H-pyrazol-5-yl)piperazin-1-yl]pyrrolidin-2-ylcarbonyl}thiazolidine 2.5 hydrobromide], the “fasting plasma glucose concentration” value (Wistar rat; overnight-fasted male Wistar rats, gavage, dose of 100 mg/kg, maximum change from value before drug administration (FIG. 6)) is reported as “no effect”, the fasting insulin concentration (Wistar rat; overnight-fasted male Wistar rats, gavage, dose of 100 mg/kg, maximum change from value before drug administration (FIG. 7)) is reported as “no effect” and the “increase in the plasma TG concentration after fat loading” value (ZF rat; male ZF rats, 1 mg/kg by gavage 15 min before oral fat emulsion 10 mL/kg, change from value before fat loading (FIG. 1)) is reported as “suppressed”. The “increase in the plasma free fatty acids concentration after fat loading” value (ZF rat; male ZF rats, 1 mg/kg by gavage 15 min before oral fat emulsion 10 mL/kg, change from value before fat loading (FIG. 2)) was “suppressed”, the “increase in the plasma glucose concentration after fat loading” value (ZF rat; male ZF rats, 1 mg/kg by gavage 15 min before oral fat emulsion 10 mL/kg, change from value before fat loading (FIG. 3)) was “suppressed” and the “plasma insulin concentration after fat loading” value (ZF rat; male ZF rats, 1 mg/kg by gavage 15 min before oral fat emulsion 10 mL/kg, change from value before fat loading (FIG. 4)) was “transiently increased”. For the same molecule, the “increase in the baseline plasma glucose concentration by fat loading” value (fat-loaded ZF rat; male fat-loaded ZF rats, 1 mg/kg by gavage 15 min before fat emulsion (FIG. 5)) was “suppressed” and the “increase in the plasma glucose concentration after oral glucose loading” value (fat-loaded ZF rat; male fat-loaded ZF rats, 1 mg/kg by gavage, mixed carbohydrate 3.5 g/kg orally at 6 hr after fat loading (FIG. 5)) was “suppressed”.
